Values after ≈ are worked out from the molar mass of the structure shown. Active and inactive are the calls of the source. No cut-off for these calls is given here.
Experiments:
Lipid bilayer [1] = experiment: Induction of ionophore activity across EYPC:CHOL (8:2) large unilamellar vesicles assessed as transmembrane Zn2+ ion transport by measuring decrease in fluorescence intensity for HPTS dye at 10 uM preincubated for 3 mins followed by ZnCl2 addition and mesured after 7.5 mins by HPTS dye based fluorescence spectrophotometric analysis; conditions: filed as opener, time 10.5 min
Lipid bilayer [2] = experiment: Induction of ionophore activity across EYPC:CHOL (8:2) large unilamellar vesicles assessed as transmembrane cation transport by measuring decrease in fluorescence intensity for HPTS dye preincubated for 3 mins followed by NaCl addition and mesured after 7.5 mins by HPTS dye based fluorescence spectrophotometric analysis; conditions: time 10.5 min
Lipid bilayer [3] = experiment: Induction of ionophore activity across EYPC:CHOL (8:2) large unilamellar vesicles assessed as transmembrane cation transport by measuring decrease in fluorescence intensity for HPTS dye preincubated for 3 mins followed by MnCl2 addition and mesured after 7.5 mins by HPTS dye based fluorescence spectrophotometric analysis; conditions: time 10.5 min
Lipid bilayer [4] = experiment: Induction of ionophore activity across EYPC:CHOL (8:2) large unilamellar vesicles assessed as transmembrane cation transport by measuring decrease in fluorescence intensity for HPTS dye preincubated for 3 mins followed by CaCl2 addition and mesured after 7.5 mins by HPTS dye based fluorescence spectrophotometric analysis; conditions: time 10.5 min
Lipid bilayer [5] = experiment: Induction of ionophore activity across EYPC:CHOL (8:2) large unilamellar vesicles assessed as transmembrane cation transport by measuring decrease in fluorescence intensity for HPTS dye preincubated for 3 mins followed by CsCl addition and mesured after 7.5 mins by HPTS dye based fluorescence spectrophotometric analysis; conditions: time 10.5 min
Lipid bilayer [6] = experiment: Induction of ionophore activity across EYPC:CHOL (8:2) large unilamellar vesicles assessed as transmembrane cation transport by measuring decrease in fluorescence intensity for HPTS dye preincubated for 3 mins followed by MgCl2 addition and mesured after 7.5 mins by HPTS dye based fluorescence spectrophotometric analysis; conditions: time 10.5 min
Lipid bilayer [7] = experiment: Induction of ionophore activity across EYPC:CHOL (8:2) large unilamellar vesicles assessed as transmembrane anion transport by measuring decrease in fluorescence intensity for HPTS dye preincubated for 3 mins followed by ZnBr2 addition and mesured after 7.5 mins by HPTS dye based fluorescence spectrophotometric analysis; conditions: filed as opener; time 10.5 min
Lipid bilayer [8] = experiment: Induction of ionophore activity across EYPC:CHOL (8:2) large unilamellar vesicles assessed as transmembrane anion transport by measuring decrease in fluorescence intensity for HPTS dye preincubated for 3 mins followed by ZnSO4 addition and mesured after 7.5 mins by HPTS dye based fluorescence spectrophotometric analysis; conditions: filed as opener; time 10.5 min
Lipid bilayer [9] = experiment: Induction of ionophore activity across EYPC:CHOL (8:2) large unilamellar vesicles assessed as transmembrane anion transport by measuring decrease in fluorescence intensity for HPTS dye preincubated for 3 mins followed by Zn(NO3)2 addition and mesured after 7.5 mins by HPTS dye based fluorescence spectrophotometric analysis; conditions: filed as opener; time 10.5 min
Staphylococcus aureus [10] = experiment: Antibacterial activity against gentamicin-and methicillin-resistant Staphylococcus aureus ATCC 33592 assessed as reduction in bacterial growth incubated for 14 to 16 hrs by microbroth dilution method; assay type: functional; conditions: time 14-16 hrs
Staphylococcus aureus [11] = experiment: Antibacterial activity against Staphylococcus aureus MTCC-96 assessed as reduction in bacterial growth incubated for 14 to 16 hrs in presence of EGTA by microbroth dilution method; assay type: functional; conditions: time 14-16 hrs
Staphylococcus aureus [12] = experiment: Antibacterial activity against Staphylococcus aureus MTCC-96 assessed as fold reduction in bacterial growth incubated for 14 to 16 hrs in presence of 400 uM ZnCl2 by microbroth dilution method; assay type: functional; conditions: time 14-16 hrs
Staphylococcus aureus [13] = experiment: Antibacterial activity against Staphylococcus aureus MTCC-96 assessed as reduction in bacterial growth incubated for 14 to 16 hrs in presence of 100 to 400 uM ZnBr2 by microbroth dilution method; assay type: functional, organism-based; conditions: time 14-16 hrs
Staphylococcus aureus [14] = experiment: Antibacterial activity against Staphylococcus aureus MTCC-96 assessed as reduction in bacterial growth incubated for 14 to 16 hrs in presence of 100 to 400 uM Zn(NO3)2 by microbroth dilution method; assay type: functional, organism-based; conditions: time 14-16 hrs
Staphylococcus aureus [15] = experiment: Antibacterial activity against Staphylococcus aureus MTCC-96 assessed as reduction in bacterial growth incubated for 14 to 16 hrs in presence of 100 to 400 uM ZnSO4 by microbroth dilution method; assay type: functional, organism-based; conditions: time 14-16 hrs
Staphylococcus aureus [16] = experiment: Antibacterial activity against Staphylococcus aureus MTCC-96 assessed as reduction in bacterial growth incubated for 14 to 16 hrs in presence of 100 to 400 uM CsCl by microbroth dilution method; assay type: functional, organism-based; conditions: time 14-16 hrs
Staphylococcus aureus [17] = experiment: Antibacterial activity against Staphylococcus aureus MTCC-96 assessed as reduction in bacterial growth incubated for 14 to 16 hrs in presence of 100 to 400 uM CuCl2 by microbroth dilution method; assay type: functional, organism-based; conditions: time 14-16 hrs
Staphylococcus aureus [18] = experiment: Antibacterial activity against Staphylococcus aureus MTCC-96 assessed as reduction in bacterial growth incubated for 14 to 16 hrs in presence of 100 to 400 uM CaCl2 by microbroth dilution method; assay type: functional, organism-based; conditions: time 14-16 hrs
Staphylococcus aureus [19] = experiment: Antibacterial activity against Staphylococcus aureus MTCC-96 assessed as reduction in bacterial growth incubated for 14 to 16 hrs in presence of 100 to 400 uM MnCl2 by microbroth dilution method; assay type: functional, organism-based; conditions: time 14-16 hrs
Staphylococcus aureus [20] = experiment: Bactericidal activity against Staphylococcus aureus MTCC-96 assessed as reduction in bacterial colony formation at 2 times MIC incubated upto 8 hrs in presence of ZnCl2 by agar-plate method; assay type: functional, organism-based
Staphylococcus aureus [21] = experiment: Disruption of membrane integrity in Staphylococcus aureus MTCC-96 assessed as increase in fluorescence intensity at 4 to 8 uM by PI staining based fluorescence analysis; assay type: functional, organism-based; conditions: dose 4-8 µM
Staphylococcus aureus [22] = experiment: Disruption of membrane integrity in Staphylococcus aureus MTCC-96 assessed as change in cocci shape in presence of Zn2+ ion by FE-SEM analysis; assay type: functional, organism-based
Staphylococcus aureus [23] = experiment: Antibacterial activity against Staphylococcus aureus MTCC-96 assessed as resistance development by measuring fold increase in MIC and measured after 30 days by microbroth dilution method; assay type: functional; conditions: time 30 day
Staphylococcus aureus [24] = experiment: Antibacterial activity against Staphylococcus aureus MTCC-96 assessed as resistance development by measuring fold increase in MIC and measured after 30 days in presence of ZnCl2 by microbroth dilution method; assay type: functional, organism-based; conditions: time 30.0 day
Erythrocyte = experiment: Hemolytic activity in human Red blood cells assessed as hemolysis rate at 1.6 to 50 uM incubated for 1 to 24 hrs in presence of ZnCl2 by absorbance based analysis; assay type: toxicity, cell-based; conditions: dose lower 1.6 µM, time lower 1 hrs, dose upper 50 µM, time upper 24 hrs
MCF-10A = experiment: Cytotoxicity against human MCF-10A cells assessed as reduction in cell viability at 1 to 100 uM incubated for 44 hrs by MTT assay; assay type: toxicity, cell-based; conditions: dose 1-100 µM
MCF7 = experiment: Cytotoxicity against human MCF7 cells assessed as reduction in cell viability at 1 to 100 uM incubated for 44 hrs by MTT assay; assay type: toxicity, cell-based; conditions: mcf7, 44 h, dose 1-100 µM
A549 = experiment: Cytotoxicity against human A549 cells assessed as reduction in cell viability at 1 to 100 uM incubated for 44 hrs by MTT assay; assay type: toxicity, cell-based; conditions: a549, 44 h, dose 1-100 µM
HCT-116 = experiment: Cytotoxicity against human HCT-116 cells assessed as reduction in cell viability at 1 to 100 uM incubated for 44 hrs by MTT assay; assay type: toxicity, cell-based; conditions: hct-116, 44 h, dose 1-100 µM

| Structure (SMILES) | Activity (Lipid bilayer [1]) | Activity (Lipid bilayer [2]) | Activity (Lipid bilayer [3]) | Activity (Lipid bilayer [4]) | Activity (Lipid bilayer [5]) | Activity (Lipid bilayer [6]) | Activity (Lipid bilayer [7]) | Activity (Lipid bilayer [8]) | Activity (Lipid bilayer [9]) | MIC (Staphylococcus aureus [10]) | MIC (Staphylococcus aureus [11]) | fold change (FC) (Staphylococcus aureus [12]) | Activity (Staphylococcus aureus [13]) | Activity (Staphylococcus aureus [14]) | Activity (Staphylococcus aureus [15]) | Activity (Staphylococcus aureus [16]) | Activity (Staphylococcus aureus [17]) | Activity (Staphylococcus aureus [18]) | Activity (Staphylococcus aureus [19]) | Activity (Staphylococcus aureus [20]) | further results |
| --- | --- | --- | --- | --- | --- | --- | --- | --- | --- | --- | --- | --- | --- | --- | --- | --- | --- | --- | --- | --- | --- |
| FC(F)(F)c1cc(NC(=S)Nc2cccc3cccnc23)cc(C(F)(F)F)c1 | Active | inactive | inactive | inactive | inactive | inactive | Active | Active | Active | 3.13 µM (≈ 1.3 µg/mL) | 6.25 µM | 6.65 | Active | Active | Active | inactive | inactive | inactive | inactive | Active | Activity (Staphylococcus aureus [21]): inactive; Activity (Staphylococcus aureus [22]): inactive; fold change (FC) (Staphylococcus aureus [23]): 16; Activity (Staphylococcus aureus [24]): Active; Activity (Erythrocyte): Non-Toxic; Activity (MCF-10A): Non-Toxic; Activity (MCF7): Non-Toxic; Activity (A549): Non-Toxic; Activity (HCT-116): Non-Toxic |
| FC(F)(F)c1cc(NC(=S)Nc2cccc3ccc(-n4cnc5ccccc54)nc23)cc(C(F)(F)F)c1 | Active | inactive | inactive | inactive | inactive | inactive | Active | Active | Active | 3.13 µM (≈ 1.66 µg/mL) | 6.25 µM | 6.65 | Active | Active | Active | inactive | inactive | inactive | inactive | Active | Activity (Staphylococcus aureus [21]): inactive; Activity (Staphylococcus aureus [22]): inactive; fold change (FC) (Staphylococcus aureus [23]): 14; Activity (Staphylococcus aureus [24]): inactive; Activity (Erythrocyte): Non-Toxic; Activity (MCF-10A): Non-Toxic; Activity (MCF7): Non-Toxic; Activity (A549): Non-Toxic; Activity (HCT-116): Non-Toxic |

Source: ChEMBL document CHEMBL5360614, “Quinoline Thiourea-Based Zinc Ionophores with Antibacterial Activity” (J Med Chem, 2023)
